Experimental data reported in US20100129310A1, “STABILIZED DESLORATADINE COMPOSITION” (priority 2005, published 2010).

Assay: Compatibility of desloratadine with excipient materials, N-formyl desloratadine by HPLC
Assay type: physicochemical
Experimental: Compatibility of desloratadine with various excipient materials was determined by mixing the drug and an excipient, then subjecting the mixture to direct exposure for 14 days at 40° C. and 75% relative humidity. The analytical results for the presence of N-formyl desloratadine in the samples (as determined by HPLC) were as tabulated below, where ratios are expressed on a weight basis. Desloratadine and polacrilin resin (AMBERLITE IRP64) were dispersed in water and stirred for 2 hours, isolated by filtration, and then dried at 60° C. until the loss on drying was not more than 10% w/w when tested using an infrared moisture balance at 105° C. Where citric acid was used, the quantity of citric acid was selected to adjust the pH of the dispersion to about 6.5. Where lactose was used, the quantity of lactose is 6 times the weight of other materials, and the lactose is dry mixed with the desloratadine or dried desloratadine-resin mixture.

SMILES: Clc1ccc2c(c1)CCc1cccnc1C2=C1CCNCC1 [Desloratadine, 8-chloro-6,11-dihydro-11-(4-piperidinylidene)-5H-benzo[5,6]-cyclohepta[1,2-b]pyridine]
- % N-Formyl DCL Initial (Initial): Nil
- % N-Formyl DCL After exposure (direct exposure for 14 days at 40° C. and 75% relative humidity): Nil
